Experiments:
Assay in all cases: cells
Settings in all cases: Homo sapiens
RH-1 = assay type: functional, cell-based;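 also: growth inhibition of human RH-1 cells, read out with a cell viability assay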
Description: SANGER: Inhibition of human RH-1 cell growth in a cell viability assay.

EW-16 = assay type: functional, cell-based;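 also: growth inhibition of human EW-16 cells, read out as cell viability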
Description: SANGER: Inhibition of human EW-16 cell growth in a cell viability assay.

ETK-1 = assay type: functional, cell-based;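 also: growth inhibition of human ETK-1 cells, read out with a cell viability assay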
Description: SANGER: Inhibition of human ETK-1 cell growth in a cell viability assay.

NB10 = assay type: functional, cell-based;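 also: growth inhibition of NB10 cells, read out by a cell viability assay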
Description: SANGER: Inhibition of human NB10 cell growth in a cell viability assay.

A704 = assay type: functional, cell-based;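 also: growth inhibition of human A704 cells, read out with a cell viability assay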
Description: SANGER: Inhibition of human A704 cell growth in a cell viability assay.

TE-1 = assay type: functional, cell-based
Description: SANGER: Inhibition of human TE-1 cell growth in a cell viability assay.

EW-11 = assay type: functional, cell-based;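 also: growth inhibition of human EW-11 cells, measured with a cell viability assay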
Description: SANGER: Inhibition of human EW-11 cell growth in a cell viability assay.

EW-3 = assay type: functional, cell-based;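 also: cell viability assay read-out, IC50 reflects inhibition of growth of the EW-3 cells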
Description: SANGER: Inhibition of human EW-3 cell growth in a cell viability assay.

D-263MG = assay type: functional, cell-based
Description: SANGER: Inhibition of human D-263MG cell growth in a cell viability assay.

GI-1 = assay type: functional, cell-based;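 also: growth inhibition of human GI-1 cells, measured with a cell viability readout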
Description: SANGER: Inhibition of human GI-1 cell growth in a cell viability assay.

Lu-65 = assay type: functional, cell-based;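 also: growth inhibition of Lu-65 cancer cells, read out by a cell viability assay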
Description: SANGER: Inhibition of human LU-65 cell growth in a cell viability assay.

J-RT3-T3-5 = assay type: functional, cell-based;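 also: cell viability assay measuring growth inhibition of human J-RT3-T3-5 cells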
Description: SANGER: Inhibition of human J-RT3-T3-5 cell growth in a cell viability assay.

SBC-1 = assay type: functional, cell-based;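 also: cell viability assay measuring growth inhibition of the SBC-1 cell line, IC50 being the concentration that halves growth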
Description: SANGER: Inhibition of human SBC-1 cell growth in a cell viability assay.

TE-5 = assay type: functional, cell-based;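 also: inhibition of cell growth, read out by a cell viability assay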
Description: SANGER: Inhibition of human TE-5 cell growth in a cell viability assay.

GAK = assay type: functional, cell-based;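 also: cell growth inhibition read out by a cell viability assay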
Description: SANGER: Inhibition of human GAK cell growth in a cell viability assay.

TE-12 = assay type: functional, cell-based;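 also: growth inhibition of TE-12 cells, read out by a cell viability assay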
Description: SANGER: Inhibition of human TE-12 cell growth in a cell viability assay.

COLO-800 = assay type: functional, cell-based;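 also: growth inhibition of COLO-800 cells, read out with a cell viability assay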
Description: SANGER: Inhibition of human COLO-800 cell growth in a cell viability assay.

SNU1 = assay type: functional, cell-based;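 also: growth inhibition of human NCI-SNU-1 cells, measured with a cell viability assay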
Description: SANGER: Inhibition of human NCI-SNU-1 cell growth in a cell viability assay.

QIMR-WIL = assay type: functional, cell-based;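 also: growth inhibition of QIMR-WIL cells, read out with a cell viability assay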
Description: SANGER: Inhibition of human QIMR-WIL cell growth in a cell viability assay.

KE-37 = assay type: functional, cell-based;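 also: growth inhibition of KE-37 cells, read out with a cell viability assay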
Description: SANGER: Inhibition of human KE-37 cell growth in a cell viability assay.

HEL = assay type: functional, cell-based;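 also: growth inhibition of HEL cells, read out with a cell viability assay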
Description: SANGER: Inhibition of human HEL cell growth in a cell viability assay.

SF-126 = assay type: functional, cell-based;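 also: growth inhibition of human SF126 cells, read out with a cell viability assay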
Description: SANGER: Inhibition of human SF126 cell growth in a cell viability assay.

C2BBe1 = assay type: functional, cell-based;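 also: growth inhibition of C2BBe1 cells, read out through a viability assay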
Description: SANGER: Inhibition of human C2BBe1 cell growth in a cell viability assay.

IST-MEL1 = assay type: functional, cell-based;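 also: growth inhibition of the cell line, read out with a cell viability assay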
Description: SANGER: Inhibition of human IST-MEL1 cell growth in a cell viability assay.

LNCaP-Clone-FGC = assay type: functional, cell-based
Description: SANGER: Inhibition of human LNCaP-Clone-FGC cell growth in a cell viability assay.

NEC8 = assay type: functional, cell-based;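 also: growth inhibition of human NEC8 cells, read out by a cell viability assay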
Description: SANGER: Inhibition of human NEC8 cell growth in a cell viability assay.

SCH = assay type: functional, cell-based;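 also: growth inhibition of human SCH cells, read out in a cell viability assay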
Description: SANGER: Inhibition of human SCH cell growth in a cell viability assay.

HAL-01 = assay type: functional, cell-based;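 also: growth inhibition of human HAL-01 cells, read out with a cell viability assay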
Description: SANGER: Inhibition of human HAL-01 cell growth in a cell viability assay.

SK-MEL-2 = assay type: functional, cell-based;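 also: growth inhibition of human SK-MEL-2 cells measured with a cell viability assay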
Description: SANGER: Inhibition of human SK-MEL-2 cell growth in a cell viability assay.

NOS-1 = assay type: functional, cell-based;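 also: growth inhibition of the human NOS-1 cell line, read out with a cell viability assay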
Description: SANGER: Inhibition of human NOS-1 cell growth in a cell viability assay.

HCC2218 = assay type: functional, cell-based;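 also: cell viability assay read-out, with IC50 given as the concentration that inhibits growth of the cell line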
Description: SANGER: Inhibition of human HCC2218 cell growth in a cell viability assay.

MPP-89 = assay type: functional, cell-based;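 also: growth inhibition of human MPP-89 cells, read out with a cell viability assay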
Description: SANGER: Inhibition of human MPP-89 cell growth in a cell viability assay.

EKVX = assay type: functional, cell-based;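 also: growth inhibition of human EKVX cells, read out with a cell viability assay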
Description: SANGER: Inhibition of human EKVX cell growth in a cell viability assay.

AM-38 = assay type: functional, cell-based;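 also: growth inhibition of AM-38 cells of human origin, read out by a cell viability assay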
Description: SANGER: Inhibition of human AM-38 cell growth in a cell viability assay.

no-11 = assay type: functional, cell-based;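 also: growth inhibition of human NO-11 cells, read out with a cell viability assay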
Description: SANGER: Inhibition of human no-11 cell growth in a cell viability assay.

SW684 = assay type: functional, cell-based;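 also: growth inhibition of human SW684 cells, measured by a cell viability assay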
Description: SANGER: Inhibition of human SW684 cell growth in a cell viability assay.

HD-MY-Z = assay type: functional, cell-based;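 also: growth inhibition of HD-MY-Z cells, read out with a cell viability assay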
Description: SANGER: Inhibition of human HD-MY-Z cell growth in a cell viability assay.

SW872 = assay type: functional, cell-based;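 also: growth inhibition of SW872 cells, read out by a viability assay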
Description: SANGER: Inhibition of human SW872 cell growth in a cell viability assay.

SW 954 = assay type: functional, cell-based;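 also: growth inhibition of SW954 human cancer cells, read out as cell viability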
Description: SANGER: Inhibition of human SW954 cell growth in a cell viability assay.

ES8 = assay type: functional, cell-based;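 also: growth inhibition of human ES8 cells, read out with a cell viability assay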
Description: SANGER: Inhibition of human ES8 cell growth in a cell viability assay.

NCI-H23 = assay type: functional, cell-based;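 also: cell viability assay measuring growth inhibition of NCI-H23 cells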
Description: SANGER: Inhibition of human NCI-H23 cell growth in a cell viability assay.

KNS-81-FD = assay type: functional, cell-based;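 also: growth inhibition of KNS-81-FD cells, read out with a cell viability assay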
Description: SANGER: Inhibition of human KNS-81-FD cell growth in a cell viability assay.

SHP77 = assay type: functional, cell-based, SHP-77;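 also: growth inhibition of human SHP-77 cells measured by a cell viability assay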
Description: SANGER: Inhibition of human SHP-77 cell growth in a cell viability assay.

K5 = assay type: functional, cell-based
Description: SANGER: Inhibition of human K5 cell growth in a cell viability assay.

COR-L88 = assay type: functional, cell-based;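 also: growth inhibition of COR-L88 cells, read out with a cell viability assay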
Description: SANGER: Inhibition of human COR-L88 cell growth in a cell viability assay.

LAMA-84 = assay type: functional, cell-based;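 also: growth inhibition of LAMA-84 cells, read out with a cell viability assay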
Description: SANGER: Inhibition of human LAMA-84 cell growth in a cell viability assay.

ES6 = assay type: functional, cell-based;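 also: growth inhibition of human ES6 cells, read out with a cell viability assay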
Description: SANGER: Inhibition of human ES6 cell growth in a cell viability assay.

SH-4 = assay type: functional, cell-based;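 also: growth inhibition of SH-4 cells, read out with a cell viability assay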
Description: SANGER: Inhibition of human SH-4 cell growth in a cell viability assay.

KU812 cell line = assay type: functional, cell-based;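 also: growth inhibition of KU812 cells, read out with a cell viability assay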
Description: SANGER: Inhibition of human KU812 cell growth in a cell viability assay.

A498 = assay type: functional, cell-based;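 also: growth inhibition of human A498 cells, read out with a cell viability assay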
Description: SANGER: Inhibition of human A498 cell growth in a cell viability assay.

IST-MES1 = assay type: functional, cell-based;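 also: growth inhibition of IST-MES1 cells, measured with a cell viability assay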
Description: SANGER: Inhibition of human IST-MES1 cell growth in a cell viability assay.

COLO-824 = assay type: functional, cell-based
Description: SANGER: Inhibition of human COLO-824 cell growth in a cell viability assay.

DOHH-2 = assay type: functional, cell-based;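 also: growth inhibition of human DOHH-2 cells, read out with a cell viability assay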
Description: SANGER: Inhibition of human DOHH-2 cell growth in a cell viability assay.

TGBC1TKB = assay type: functional, cell-based;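 also: growth inhibition of TGBC1TKB cells, read out by a cell viability assay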
Description: SANGER: Inhibition of human TGBC1TKB cell growth in a cell viability assay.

EW-13 = assay type: functional, cell-based
Description: SANGER: Inhibition of human EW-13 cell growth in a cell viability assay.

U-87 MG = assay type: functional, cell-based, U-87MG ATCC
Description: SANGER: Inhibition of human U-87-MG cell growth in a cell viability assay.

no-10 = assay type: functional, cell-based
Description: SANGER: Inhibition of human no-10 cell growth in a cell viability assay.

MHH-NB-11 = assay type: functional, cell-based
Description: SANGER: Inhibition of human MHH-NB-11 cell growth in a cell viability assay.

HDLM-2 = assay type: functional, cell-based
Description: SANGER: Inhibition of human HDLM-2 cell growth in a cell viability assay.

NCI-H747 = assay type: functional, cell-based
Description: SANGER: Inhibition of human NCI-H747 cell growth in a cell viability assay.

COLO-684 = assay type: functional, cell-based
Description: SANGER: Inhibition of human COLO-684 cell growth in a cell viability assay.

ATN-1 = assay type: functional, cell-based
Description: SANGER: Inhibition of human ATN-1 cell growth in a cell viability assay.

NCI-H1770 = assay type: functional, cell-based
Description: SANGER: Inhibition of human NCI-H1770 cell growth in a cell viability assay.

KM-H2 = assay type: functional, cell-based
Description: SANGER: Inhibition of human KM-H2 cell growth in a cell viability assay.

NCI-H69 = assay type: functional, cell-based
Description: SANGER: Inhibition of human NCI-H69 cell growth in a cell viability assay.

COLO-668 = assay type: functional, cell-based
Description: SANGER: Inhibition of human COLO-668 cell growth in a cell viability assay.

C/C(O)=C(\C#N)C(=O)Nc1cc(Br)ccc1Br
IC50 (RH-1): > 16 µM
IC50 (EW-16): > 16 µM
IC50 (ETK-1): > 16 µM
IC50 (NB10): > 16 µM
IC50 (A704): > 16 µM
IC50 (TE-1): > 16 µM
IC50 (EW-11): > 16 µM
IC50 (EW-3): > 16 µM
IC50 (D-263MG): > 16 µM
IC50 (GI-1): > 16 µM
IC50 (Lu-65): > 16 µM
IC50 (J-RT3-T3-5): > 16 µM
IC50 (SBC-1): > 16 µM
IC50 (TE-5): > 16 µM
IC50 (GAK): > 16 µM
IC50 (TE-12): > 16 µM
IC50 (COLO-800): > 16 µM
IC50 (SNU1): > 16 µM
IC50 (QIMR-WIL): > 16 µM
IC50 (KE-37): > 16 µM
IC50 (HEL): > 16 µM
IC50 (SF-126): > 16 µM
IC50 (C2BBe1): > 16 µM
IC50 (IST-MEL1): > 16 µM
IC50 (LNCaP-Clone-FGC): > 16 µM
IC50 (NEC8): > 16 µM
IC50 (SCH): > 16 µM
IC50 (HAL-01): > 16 µM
IC50 (SK-MEL-2): > 16 µM
IC50 (NOS-1): > 16 µM
IC50 (HCC2218): > 16 µM
IC50 (MPP-89): > 16 µM
IC50 (EKVX): > 16 µM
IC50 (AM-38): > 16 µM
IC50 (no-11): > 16 µM
IC50 (SW684): > 16 µM
IC50 (HD-MY-Z): > 16 µM
IC50 (SW872): > 16 µM
IC50 (SW 954): > 16 µM
IC50 (ES8): > 16 µM
IC50 (NCI-H23): > 16 µM
IC50 (KNS-81-FD): > 16 µM
IC50 (SHP77): > 16 µM
IC50 (K5): > 16 µM
IC50 (COR-L88): > 16 µM
IC50 (LAMA-84): > 16 µM
IC50 (ES6): > 16 µM
IC50 (SH-4): > 16 µM
IC50 (KU812 cell line): > 16 µM
IC50 (A498): > 16 µM
IC50 (IST-MES1): > 16 µM
IC50 (COLO-824): > 16 µM
IC50 (DOHH-2): > 16 µM
IC50 (TGBC1TKB): > 16 µM
IC50 (EW-13): > 16 µM
IC50 (U-87 MG): > 16 µM
IC50 (no-10): > 16 µM
IC50 (MHH-NB-11): > 16 µM
IC50 (HDLM-2): > 16 µM
IC50 (NCI-H747): > 16 µM
IC50 (COLO-684): > 16 µM
IC50 (ATN-1): > 16 µM
IC50 (NCI-H1770): > 16 µM
IC50 (KM-H2): > 16 µM
IC50 (NCI-H69): > 16 µM
IC50 (COLO-668): > 16 µM

O=c1[nH]c2ccccc2n1C1CCN(Cc2ccc(-c3nc4cc5[nH]cnc5cc4nc3-c3ccccc3)cc2)CC1
IC50 (RH-1): > 2.56 µM
IC50 (EW-16): > 2.56 µM
IC50 (ETK-1): > 2.56 µM
IC50 (NB10): > 2.56 µM
IC50 (A704): > 2.56 µM
IC50 (TE-1): > 2.56 µM
IC50 (EW-11): > 2.56 µM
IC50 (EW-3): > 2.56 µM
IC50 (D-263MG): > 2.56 µM
IC50 (GI-1): > 2.56 µM
IC50 (Lu-65): > 2.56 µM
IC50 (J-RT3-T3-5): > 2.56 µM
IC50 (SBC-1): > 2.56 µM
IC50 (TE-5): > 2.56 µM
IC50 (GAK): > 2.56 µM
IC50 (TE-12): > 2.56 µM
IC50 (COLO-800): > 2.56 µM
IC50 (SNU1): > 2.56 µM
IC50 (QIMR-WIL): > 2.56 µM
IC50 (KE-37): 1.84 µM
IC50 (HEL): > 2.56 µM
IC50 (SF-126): > 2.56 µM
IC50 (C2BBe1): > 2.56 µM
IC50 (IST-MEL1): > 2.56 µM
IC50 (LNCaP-Clone-FGC): > 2.56 µM
IC50 (NEC8): > 2.56 µM
IC50 (SCH): > 2.56 µM
IC50 (HAL-01): > 2.56 µM
IC50 (SK-MEL-2): > 2.56 µM
IC50 (NOS-1): 1.37 µM
IC50 (HCC2218): > 2.56 µM
IC50 (MPP-89): > 2.56 µM
IC50 (EKVX): > 2.56 µM
IC50 (AM-38): > 2.56 µM
IC50 (no-11): > 2.56 µM
IC50 (SW684): > 2.56 µM
IC50 (HD-MY-Z): > 2.56 µM
IC50 (SW872): > 2.56 µM
IC50 (SW 954): > 2.56 µM
IC50 (ES8): > 2.56 µM
IC50 (NCI-H23): > 2.56 µM
IC50 (KNS-81-FD): > 2.56 µM
IC50 (SHP77): > 2.56 µM
IC50 (K5): > 2.56 µM
IC50 (COR-L88): > 2.56 µM
IC50 (LAMA-84): > 2.56 µM
IC50 (ES6): > 2.56 µM
IC50 (SH-4): > 2.56 µM
IC50 (KU812 cell line): 1.73 µM
IC50 (A498): 1.08 µM
IC50 (IST-MES1): > 2.56 µM
IC50 (COLO-824): > 2.56 µM
IC50 (DOHH-2): > 2.56 µM
IC50 (TGBC1TKB): > 2.56 µM
IC50 (EW-13): > 2.56 µM
IC50 (U-87 MG): > 2.56 µM
IC50 (no-10): > 2.56 µM
IC50 (MHH-NB-11): > 2.56 µM
IC50 (HDLM-2): > 2.56 µM
IC50 (NCI-H747): > 2.56 µM
IC50 (COLO-684): > 2.56 µM
IC50 (ATN-1): > 2.56 µM
IC50 (NCI-H1770): > 2.56 µM
IC50 (KM-H2): > 2.56 µM
IC50 (NCI-H69): > 2.56 µM
IC50 (COLO-668): > 2.56 µM

Source: ChEMBL document CHEMBL1201861, “Genomics of Drug Sensitity in Cancer screening data, Wellcome Trust Sanger Institute”
